Entries after “also recorded” stand apart in the source; their conditions may differ. Bridge positions count the residues as written; N and C are the ends. Square brackets hold non-standard residues; d marks the D form. Peptide text beside a SMILES is read from it. * marks the point of attachment. Hexadecanoyl(3R-OH) = CCCCCCCCCCCCC[C@@H](O)CC(=O)*; d(aThr) = C[C@@H](O)[C@@H](N)C(=O)O; dOrn = NCCC[C@@H](N)C(=O)O

For data set [1], the system named is PCA (Passive Cutaneous Anaphylaxis) reactions in rats of the S-D strain. The data set can be described thus: PCA (Passive Cutaneous Anaphylaxis) reaction, Evans blue patch. To be noted: for Development of blue patch +, number of animals in a group of five / Development of blue patch -, number of animals in a group of five / Development of blue patch ±, number of animals in a group of five: 150 μl intradermal 5 min before challenge. The data set is classed as in vivo. How it is done:
The experiment described below was accomplished in accordance with conventional methods. (Reference: J. Immunology, 106, 1002-1011, 1971). Rats were sensitized with egg albumin antigen to obtain an anti-serum. The rats of the S-D strain (male, 8 wk of age) were passively sensitized by intradermal injection of 50 μl of the thus obtained anti-egg albumin serum on their backs. Forty-eight hours later, each rat was challenged by the intravenous injection of physiological saline containing egg albumin (2.5 mg) plus Evans blue (2.5 mg). Sixty minutes after the injection, any development of blue dye patch due to the extravasation of Evans blue at the sensitized site was checked. Five minutes before the challenge, the test compound (150 μl) was intradermally injected at the sensitized site. DSCG (disodium cromoglycate) was used as a control.

For data set [2] the following is noted: mouse, in vivo, ip.
The nature of a further data set: Solubility. The data set is classed as physicochemical. To be noted: potassium salts (Table 1). How it is done: (All measurements were carried out using potassium salts of the compounds unless otherwise specified.)
For data set [3], the system named is Con A-stimulated T-lymphocytes. The data set can be described thus: Reaction of T-lymphocyte blastogenesis, [3H]-thymidine uptake. Format: cell-based, BALB/c mice. Particulars: 100 μg/ml (given for Plipastatin A1; not given for B1); 5 μg/ml Con A, 72 hours. How it is done:
(§1) This experiment illustrates the suppressive effects of Plipastatin on the reaction of lymphocyte blastogenesis.
(§2) The reaction of lymphocyte blastogenesis was evaluated in terms of the incorporation of [^3 H]-thymidine in the DNA synthesis by both T-cells and B-cells stimulated with concanavalin A (hereunder referred to as Con A) and lipopolysaccharide of E. coli 055:B5. (Reference "Meneki Jikken Sosaho", or "Immunological Experiments Manual", pp. 2267-2276, The Japanese Society for Immunology).
(§3) In the reaction of T-lymphocyte blastogenesis, the T-cells were obtained by passing spleen cells of BALB/c mice (19 weeks old) through a nylon column to remove adsorptive cells and by then cultivating the resulting spleen cells in a plastic Petri dish for one hour to eliminate the remaining adsorptive cells. The cultivation of the T-cells was conducted in wells of a Falcon microtest plate using RPMI 1640 medium containing 20% fetal bovine serum, […] of Hepes, 100 μg/ml of streptomycin and 100 U/ml of penicillin G. The T-lymphocytes (1×10^5), 5 μg/ml of Con A and PLIPASTATIN A1 or B1 were added in that order to the wells and said medium was then added to the wells to make a total of 0.2 ml. The resulting mixture was incubated for 72 hours. The mixture was pulse-labeled with [^3 H]-thymidine at 8 hours before terminating the cultivation. […]

In data set [4] the test system is delayed-type hypersensitivity (DTH) in CDF1 mice. The data set can be described thus: Cell-mediated immunity: delayed-type hypersensitivity (DTH) to SRBC, footpad swelling. The data set is classed as in vivo. To be noted: for Thickness of footpad: 24 h after secondary SRBC challenge, CDF1 mice; for Percentage with respect to the control: footpad swelling, control = 100%. From the text: This experiment illustrates the effects on the cell-mediated immunity in normal mice.
The activities of Plipastatin A1 and B1 on cell-mediated immunity were studied in terms of delayed-type hypersensitivity (DTH) caused by inoculating mice with antigenic sheep red blood cells (SRBC) in one footpad (Reference: J. Exp. Med., 139, 1529-1539, 1974).
CDF1 mice (female, 8 week of age) were inoculated intravenously with a suspension of 5×10^5 SRBC in physiological saline. At the same time, a single dose of an aqueous solution of 5 mg/Kg or 0.5 mg/Kg of Plipastatin A1 or B1 was administered intraperitoneally to the mice. Four days after the injection, the mice were subjected to the secondary challenge by subcutaneous injection of the other footpad with a suspension of 10^8 SRBC in physiological saline. Twenty-four hours later, the degree of footpad swelling (increasing in the thickness of the footpad) was measured with a caliper. The cell-mediated immunity suppressive effects of the test compounds were determined by comparing the degree of footpad swelling in the treated animals with the degree of footpad swelling (100%) in untreated, control animals that were subcutaneously injected in their footpads with an aqueous solution of SRBC in physiological saline in stead of the test compounds.

Data set [5] relates to LPS-stimulated B-lymphocytes. Put plainly: Reaction of B-lymphocyte blastogenesis, [3H]-thymidine uptake. The data set is classed as cell-based, BALB/c mice. To be noted: 100 μg/ml (given for Plipastatin A1; not given for B1); 100 μg/ml LPS, 72 hours. As for the experimental part:
as §1, §2, §3

Another data set deals with phospholipase A2. As for the experimental part:
(§4) The measurement of the antiphospholipase D activity is carried out by the method of Okuyama et al. described in A. Okuyama, T. Nishikiori, T. Aoyagi and H. Umezawa, Biochemistry international, 4, 417, 1982. Dipalmitoylphosphatidyl choline (DPC) (200 mM) and cholin-methyl-^14 C-DPC (4×10^4 dpm) are suspended ultrasonically in 390 μl of 50 mM tris-hydrochloric acid buffer (pH 5.7) containing 1 mM calcium chloride. To the resulting suspension is added 10 μl of a solution containing the sample to be tested. To the resulting mixture is added 100 μl of a solution of commercially available phospholipase D (derived from cabbage) and reacted at 37° C. for 20 minutes. The reaction is quenched by addition of 1.5 ml of a mixture of chloroform, methanol and conc. hydrochloric acid (2:1:0.02 v/v). To this mixture is then added 1 ml of 50% methanol containing […] potassium chloride and the mixture is stirred. Two layers are separated by centrifugation. The radioactivity (a) of choline liberated from the upper layer by the enzyme is measured. Also, the radioactivity (b) of the buffer free from the sample is measured as a blank test. The percentage inhibition of phospholipase activity is calculated according to the following formula: [(b-a)/b]×100.
(§5) IC50 values correspond to the concentration of the samples giving a 50% inhibition.
(§6) The measurement of the inhibition of phospholipase was accomplished by the method of Okuyama et al. set forth above.

In a further data set the target is phospholipase C. How it is done:
as §4, §5, §6

The target in data set [6] is phospholipase D (derived from cabbage). Put plainly: Inhibition of phospholipase D (antiphospholipase D activity, 14C-DPC). To be noted: Table 2. The data set is classed as biochemical. The source says: The monitoring of the production of Plipastatin through the cultivation and purification steps is accomplished by measuring the antiphospholipase D activity in accordance with the following method.
Two layers are separated by centrifugation.

`O=C([O-])c1cc(=O)c2c(OCC(O)COc3cccc4oc(C(=O)[O-])cc(=O)c34)cccc2o1.[Na+].[Na+]` [DSCG, disodium cromoglycate, reference compound]: in [1] (Conc. 59 μM), the “Development of blue patch +, number of animals in a group of five” value (“Development of blue patch +” for short) amounted to 0; the “Development of blue patch -, number of animals in a group of five” value (“Development of blue patch -, number … of five” below) is given as 4; the “Development of blue patch ±, number of animals in a group of five” value (“Development of blue patch ±” for short) is listed as 1. Moreover, in data set [1] (Conc. 590 μM), the “Development of blue patch +” value is given as 0; the “Development of blue patch -, number … of five” value worked out at 4; the “Development of blue patch ±” value stood at 1.

`CCCCCCCCCCCCC[C@@H](O)CC(=O)N[C@@H](CCC(=O)O)C(=O)N[C@H](CCCN)C(=O)N[C@H]1Cc2ccc(cc2)OC(=O)[C@H]([C@@H](C)CC)NC(=O)[C@@H](Cc2ccc(O)cc2)NC(=O)[C@H](CCC(N)=O)NC(=O)[C@@H]2CCCN2C(=O)[C@@H](C(C)C)NC(=O)[C@H](CCC(=O)O)NC(=O)[C@@H]([C@@H](C)O)NC1=O` [Plipastatin B1] ({Hexadecanoyl(3R-OH)}-E[dOrn]Y[d(aThr)]E[dV]PQ[dY]I; ester 3-C): the LD50 (in general, the dose expected to kill half of the subjects tested) in [2] fell in the range of 250 to 500 mg/kg. Also, in “Solubility”, the Solubility entry was “Soluble in water, methanol, ethanol, and dimethyl sulfoxide; also recorded: Insoluble in organic solvents such as acetone, ethyl acetate,”. For the same compound, the “Suppression of uptake of [3H]-thymidine into Con A-stimulated T-lymphocytes” value in [3] is 54%. For the same compound, in data set [4] (dose 0.5 mg/Kg single i.p.), the Thickness of footpad is listed as 97 ± 44 × 10^-2 mm and the “Percentage with respect to the control” value is listed as 99%. Besides, in [4] (dose 5 mg/Kg single i.p.), the Thickness of footpad is 57 ± 31 × 10^-2 mm and the “Percentage with respect to the control” value is 58%. Moreover, the “Suppression of uptake of [3H]-thymidine into LPS-stimulated B-lymphocytes” value in [5] is given as 20%. Moreover, the “Degree of inhibition, IC50, phospholipase A2” value at phospholipase A2 was 5.2 µg/mL. In addition, the “Degree of inhibition, IC50, phospholipase C” value at phospholipase C amounted to 3.6 µg/mL. The “Degree of inhibition, IC50, phospholipase D” value in data set [6] worked out at 2.8 µg/mL.

Turning to Plipastatin A1, the Solubility result in “Solubility” was “Soluble in water, methanol, ethanol, and dimethyl sulfoxide; also recorded: Insoluble in organic solvents such as acetone, ethyl acetate,”. Further, the “Suppression of uptake of [3H]-thymidine into Con A-stimulated T-lymphocytes” value in data set [3] was determined as 52%. The Thickness of footpad in data set [4] (dose 0.5 mg/Kg single i.p.) is 63 ± 25 × 10^-2 mm; in data set [4] (dose 5 mg/Kg single i.p.), 48 ± 16 × 10^-2 mm. Further, the “Percentage with respect to the control” value stood at 64% in data set [4] (dose 0.5 mg/Kg single i.p.) and 49% in data set [4] (dose 5 mg/Kg single i.p.). In [5], the “Suppression of uptake of [3H]-thymidine into LPS-stimulated B-lymphocytes” value came out at 15%. The “Development of blue patch +” value in data set [1] (Conc. 5.9 μM) is 2; in data set [1] (Conc. 59 μM) it was 0; in data set [1] (Conc. 590 μM), 0. Moreover, the “Development of blue patch -, number … of five” value was 0 in data set [1] (Conc. 5.9 μM), 4 in [1] (Conc. 59 μM) and 5 in data set [1] (Conc. 590 μM). The “Development of blue patch ±” value was determined as 3 in data set [1] (Conc. 5.9 μM), 1 in data set [1] (Conc. 59 μM) and 0 in data set [1] (Conc. 590 μM). Further, the “Suppressive effects on PCA reactions” value in data set [1] (intradermal injections of 590 and 59 μM) is on record as “comparable to those of DSCG”. Moreover, at phospholipase A2, the “Degree of inhibition, IC50, phospholipase A2” value came out at 4.3 µg/mL. The “Degree of inhibition, IC50, phospholipase C” value at phospholipase C was 1.9 µg/mL. For the same compound, in [6], the “Degree of inhibition, IC50, phospholipase D” value came out at 2.1 µg/mL.

On to Plipastatin A2, for which the Solubility result in “Solubility” was “Soluble in water, methanol, ethanol, and dimethyl sulfoxide; also recorded: Insoluble in organic solvents such as acetone, ethyl acetate,”. Also, the “Degree of inhibition, IC50, phospholipase A2” value at phospholipase A2 came out at 3.4 µg/mL. Also, the “Degree of inhibition, IC50, phospholipase C” value on phospholipase C is 4.0 µg/mL. The “Degree of inhibition, IC50, phospholipase D” value in data set [6] was 3.8 µg/mL.

Plipastatin B2: the Solubility entry in the data set “Solubility” is “Soluble in water, methanol, ethanol, and dimethyl sulfoxide; also recorded: Insoluble in organic solvents such as acetone, ethyl acetate,”. In addition, the “Degree of inhibition, IC50, phospholipase A2” value on phospholipase A2 was found to be 3.5 µg/mL. For the same compound, at phospholipase C, the “Degree of inhibition, IC50, phospholipase C” value was 4.5 µg/mL. Further, the “Degree of inhibition, IC50, phospholipase D” value in [6] amounted to 3.3 µg/mL.

The record behind these values is patent US4742155A, “Plipastatin and method for preparation thereof” (Zaidan Hojin Biseibutsu Kagaku Kenkyu Kai, priority 1984, dated 1988).
